Test results reported in patent publication US7541464B2, “7-azaindoles, pharmaceutical compositions and their therapeutic applications” (Sanofi-Aventis Deutschland GmbH, priority 2004, dated 2009).
Where two headings read alike, the source gives them in different places.

Legend:
[1] = biological target: T1, human PPARdelta (Homo sapiens, UniProt Q03181); assay: Cellular PPARdelta assay (HEK luciferase reporter cell line); type: cell-based; conditions: PPARdelta reporter cell line (HEK, GR-GAL4-humanPPARdelta-LBD)
T1 construct: amino acids S139-Y441; expressed in transfected cells; plasmid pcDNA3
T1 sequence (Q03181 139-441): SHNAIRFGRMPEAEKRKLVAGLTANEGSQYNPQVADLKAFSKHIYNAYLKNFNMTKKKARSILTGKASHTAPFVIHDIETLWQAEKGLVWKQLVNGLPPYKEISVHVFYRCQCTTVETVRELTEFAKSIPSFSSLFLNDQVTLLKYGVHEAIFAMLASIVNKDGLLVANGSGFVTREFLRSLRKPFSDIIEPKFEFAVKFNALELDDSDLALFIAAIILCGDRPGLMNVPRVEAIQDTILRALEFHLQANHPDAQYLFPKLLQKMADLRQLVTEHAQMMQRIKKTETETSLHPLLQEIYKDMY
Procedure: The potency of substances which bind to human PPARdelta and activate it in an agonistic manner is analyzed using a stably transfected HEK cell line (HEK=human embryo kidney) which is referred to here as PPARdelta reporter cell line. In analogy to the assay described for PPARalpha, the PPARdelta reporter cell line also contains two genetic elements, a luciferase reporter element (pdeltaM-GAL4-Luc-Zeo) and a PPARdelta fusion protein (GR-GAL4-humanPPARdelta-LBD) which mediates expression of the luciferase reporter element depending on a PPARdelta ligand. The stably and constitutively expressed fusion protein GR-GAL4-humanPPARdelta-LBD binds in the cell nucleus of the PPARdelta reporter cell line via the GAL4 protein portion to the GAL4 DNA binding motifs 5′-upstream of the luciferase reporter element which is stably integrated in the genome of the cell line. […] The luciferase which is formed can be detected by means of chemiluminescence via an appropriate substrate. […]
The activity of PPARdelta agonists is determined in a 3-day assay in exact analogy to the procedure already described for the PPARalpha reporter cell line except that the PPARdelta reporter cell line and a specific PPARdelta agonist was used as a standard to control test efficacy.

[2] = biological target: T2, human PPARalpha (Homo sapiens, UniProt Q07869); assay: Cellular PPARalpha assay (HEK luciferase reporter cell line); type: cell-based; conditions: PPARalpha reporter cell line (HEK, GR-GAL4-humanPPARalpha-LBD)
T2 construct: amino acids S167-Y468; expressed in transfected cells; plasmid pcDNA3
T2 sequence (Q07869 167-468): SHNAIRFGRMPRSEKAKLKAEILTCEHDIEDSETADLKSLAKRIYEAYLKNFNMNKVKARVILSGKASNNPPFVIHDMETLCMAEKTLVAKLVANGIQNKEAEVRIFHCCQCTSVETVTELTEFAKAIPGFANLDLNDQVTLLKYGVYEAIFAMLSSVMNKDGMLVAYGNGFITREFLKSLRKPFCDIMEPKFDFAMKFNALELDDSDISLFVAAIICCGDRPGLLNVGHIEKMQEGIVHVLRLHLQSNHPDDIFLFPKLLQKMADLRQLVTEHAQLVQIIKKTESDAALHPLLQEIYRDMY
Procedure: Determination of EC50 Values of PPAR Agonists In the Cellular PPARalpha Assay
The potency of substances which bind to human PPARalpha and activate it in an agonistic manner is analyzed using a stably transfected HEK cell line (HEK=human embryo kidney) which is referred to here as PPARalpha reporter cell line. It contains two genetic elements, a luciferase reporter element (pdeltaM-GAL4-Luc-Zeo) and a PPARalpha fusion protein (GR-GAL4-humanPPARalpha-LBD) which mediates expression of the luciferase reporter element depending on a PPARalpha ligand. The stably and constitutively expressed fusion protein GR-GAL4-humanPPARalpha-LBD binds in the cell nucleus of the PPARalpha reporter cell line via the GAL4 protein portion to the GAL4 DNA binding motifs 5′-upstream of the luciferase reporter element which is stably integrated in the genome of the cell line. There is only weak expression of the luciferase reporter gene in the absence of a PPARalpha ligand if fafty acid-depleted fetal calf serum (cs-FCS) is used in the assay. PPARalpha ligands bind and activate the PPARalpha fusion protein and thereby stimulate the expression of the luciferase reporter gene. The luciferase which is formed can be detected by means of chemiluminescence via an appropriate substrate. […]
The activity of PPARalpha agonists is determined in a 3-day assay which is described below: […]

[3] = test system: PPARdelta; conditions: diabetic animal model; cited from earlier work
[4] = test system: PPARdelta; conditions: obese, insulin resistant rhesus monkeys; cited from earlier work
[5] = test system: PPARdelta/PPARalpha; conditions: two weeks clinical trials in healthy volunteers; cited from earlier work
[6] = test system: PPARdelta/PPARalpha; conditions: rhesus and cynomolgus monkeys; cited from earlier work

Q: With CCCCc1nc(-c2ccc(C(F)(F)F)cc2)sc1Cn1ccc2cc(OCC(=O)O)cnc21 [Example 1, {1-[4-Butyl-2-(4-trifluoromethyl-phenyl)-thiazol-5-ylmethyl]-1H-pyrrolo[2,3-b]pyridin-5-yloxy}-acetic acid] as the molecule, how does the EC50 [1] read?
A: 470 nM

Q: What about the EC50 [2] of the same molecule?
A: 40 nM

Q: With CCCCc1nc(-c2ccc(C(F)(F)F)cc2)sc1Cn1ccc2c(CCC)c(OCC(=O)O)cnc21 [Example 2, {1-[4-Butyl-2-(4-trifluoromethyl-phenyl)-thiazol-5-ylmethyl]-4-propyl-1H-pyrrolo[2,3-b]pyridin-5-yloxy}-acetic acid] as the molecule, how does the EC50 [1] read?
A: 140 nM

Q: What about the EC50 [2] of the same molecule?
A: 320 nM

Q: Which plasma cholesterol [3] does the source give for CCCc1c(OCCCOc2ccc(OCC(=O)O)cc2)ccc(C(C)=O)c1O [Example L-165041] here?
A: raises plasma cholesterol

Q: For Cc1cc(SCc2sc(-c3ccc(C(F)(F)F)cc3)nc2C)ccc1OCC(=O)O [GW501516], which HDL-cholesterol [4] is on record?
A: raises

Q: And the “plasma LDL-cholesterol” value [4]?
A: decreases

Q: What about the plasma insulin levels [4] of the same molecule?
A: decreases

Q: What about the plasma triglycerides [4] of the same molecule?
A: decreases

Q: With CCCc1c(OCCCSc2nnc(SCC(=O)O)s2)ccc(C(C)=O)c1O [YM-16638] as the molecule, how does the plasma lipids [5] read?
A: acts in a similar manner

Q: And the plasma lipids [6]?
A: significantly lowers plasma lipids
